In patent US8097422B2, “Kir channel modulators” (Salk Institute for Biological Studies, priority 2007, dated 2012):
Where two headings read alike, the source gives them in different places. One block for each compound: values may come before it.

Legend:
[1] = target: T1, Kir3 channels (Mus musculus, UniProt P48542); assay: patch-clamp determination of ion transport activity: activation of Kir3 channels; type: cell-based; conditions: for Emax at 100000 µM: read-out: Maximal activation of Kir3 channels relative to that of 100 mM (±)MPD
T1 construct: other: patch-clamp; other: 100 mM
T1 sequence (P48542 1-425): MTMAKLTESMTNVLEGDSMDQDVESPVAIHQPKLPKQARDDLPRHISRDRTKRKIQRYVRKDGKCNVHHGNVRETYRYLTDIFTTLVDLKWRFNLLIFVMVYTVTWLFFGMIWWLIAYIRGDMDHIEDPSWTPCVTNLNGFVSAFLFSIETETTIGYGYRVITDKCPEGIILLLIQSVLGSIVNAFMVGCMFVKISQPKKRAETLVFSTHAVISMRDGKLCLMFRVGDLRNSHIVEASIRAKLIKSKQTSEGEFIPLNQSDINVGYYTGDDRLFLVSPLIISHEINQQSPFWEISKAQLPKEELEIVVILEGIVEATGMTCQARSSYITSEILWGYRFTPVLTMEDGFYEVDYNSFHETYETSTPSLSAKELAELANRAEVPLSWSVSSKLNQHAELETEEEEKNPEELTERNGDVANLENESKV
From the text: It has been determined that inwardly rectifying potassium (Kir) channels are regulated directly by small molecule alcohol compounds. Three-dimensional crystallographic analysis of Kir channels has elucidated atomic details of binding pocket interactions with 2-methyl-2,4-pentanediol (MPD). MPD inhibits Kir2 channel activity and activates Kir3 channel activity. Amino acid substitutions in this hydrophobic pocket of the channel protein may alter the response to MPD. As determined by patch-clamp determinations of ion transport activity, a racemic mixture of 2-methyl-2,4-pentanediol, (±)MPD, activates Kir3 channels with an EC50 of >200 mM and inhibits Kir2 homotetramer channels with an IC50 of ˜200 mM. […] Bupivacaine inhibits Kir3.1/3.4 and Kir3.1/3.2 channels with an IC50 of ˜20-40 micromolar.
The following also were observed. Maximal activation of Kir3 channels by 100 mM (±)MPD is 280% that of 100 mM EtOH. Maximal activation of Kir3 channels by 100 mM R(−)2 methyl-2,4-pentanediol is 60% that of 100 mM (±)MPD. Maximal activation of Kir3 channels by 100 mM 3-methyl-1,3,5-pentanetriol is 70% that of 100 mM (±)MPD. Maximal activation of Kir3 channels by 100 mM 2,5-dimethyl-1,2,6-hexanetriol is 70% that of 100 mM (±)MPD. Maximal activation of Kir3 channels by 100 mM (±) 2,4-pentanediol is 50% that of 100 mM (±)MPD.

[2] = target: T2, IRK1 channel (Mus musculus, UniProt P35561); assay: whole-cell patch clamp, HEK293T cells transfected with IRK1; type: cell-based; conditions: 1 mM Ba++
T2 construct: expressed in transfected cells; host or cells: HEK293T
T2 sequence (P35561 1-428): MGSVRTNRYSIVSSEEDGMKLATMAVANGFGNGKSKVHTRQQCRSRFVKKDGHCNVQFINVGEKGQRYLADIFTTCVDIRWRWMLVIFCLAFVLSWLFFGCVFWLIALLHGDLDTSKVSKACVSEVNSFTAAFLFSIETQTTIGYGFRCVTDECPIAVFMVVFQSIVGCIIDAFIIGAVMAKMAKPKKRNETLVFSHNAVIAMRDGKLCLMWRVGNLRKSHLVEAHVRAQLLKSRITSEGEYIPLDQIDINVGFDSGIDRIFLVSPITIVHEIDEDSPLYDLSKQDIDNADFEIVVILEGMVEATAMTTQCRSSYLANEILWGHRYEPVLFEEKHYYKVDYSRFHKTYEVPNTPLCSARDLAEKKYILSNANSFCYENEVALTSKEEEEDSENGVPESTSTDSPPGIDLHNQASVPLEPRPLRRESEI
Procedure: Using whole-cell patch clamp, technique in HEK293T cells transfected with IRK1 or GIRK2 channels, it was determined that MPD does in fact modulate these channels. Addition of 100 mM MPD inhibits the inward currents of the IRK1 channel, without changing the reversal potential or altering inward rectification (FIG. 1e).
(§1) GIRK2c, GIRK4, IRK1, M2R and m-Phosducin were subcloned into PCDNA3.1 vector (Invitrogen). Point mutations were introduced by Quickchange site directed mutagenesis kit (Stratagene). The GIRK2 PIP mutant was generated by overlap-PCR method. Briefly, amino acid 216-NLRKSHL-222 (SEQ ID NO: 25) of IRK1 was swapped into 228-DLRNSHL-234 (SEQ ID NO: 26) of GIRK2, in the region designated βC-βD loop in the crystal structure. Mutations were confirmed by automated DNA sequencing methods.
(§2) HEK 293T cells were cultured in DMEM supplemented with 10% FBS, and 1× Glutamax (Invitrogen) in a humidified 37° incubator with 5% CO2. Cells were plated in a 12 well dish, and were transiently transfected using Lipofectamine 2000 (Invitrogen). After 12-24 hrs, cells were re-plated to 12-mm glass coverslips coated with poly-D-Lysine (20 microgram/ml).
(§3) HEK293 cells were transfected with 0.2 micrograms of channel cDNA. The cells were co-transfected with 0.04 micrograms of eYFP cDNA to identify transfected cells. 0.8 micrograms of Muscarinic Receptor 2 (M2R) was also co-transfected for experiments with Carbachol. For experiments with and without m-phosducin, 0.8 ug of m-phosducin cDNA was used versus a PCDNA3.1 vector control.
(§4) Whole-cell patch clamp recordings were performed 24-72 hrs after transfection. Borosilicate glass electrodes (Warner Instruments) of […] filled with intracellular solution (130 mM KCl, 20 mM NaCl, 5 mM EGTA, 2.56 mM K2ATP, 5.46 mM MgCl2, 0.30 mM Li2GTP, and 10 mM HEPES (pH 7.4)) was used. Membrane currents were recorded using Axopatch 200B (Axon Instruments) amplifier, adjusted electronically for cell capacitance and series resistance (80-100%), filtered at 1 kHz with an 8-pole Bessel filter and digitized at 5 kHz with a Digidata 1200 interface (Axon Instruments). The cells rapidly perfused with a 20 mM K^+ (20K) solution (20 mM KCl, 140 mM NaCl, 0.5 mM CaCl2, 2 mM MgCl2 and 10 mM HEPES (pH7.4)). Alcohols, 5 μM Carbachol, and 1 mM BaCl2 (diluted in 20K solution) were applied from outside the cell with the rapid perfusion system (Warner Instruments). Whole-cell currents were measured using a ramp protocol that holds at −40 mV, steps to −100 mV then ramps to +50 mV and repeats every 2 seconds. Current-voltage relationships also were obtained from the ramp protocol. This protocol was used to measure the inwardly rectifying currents at −100 mV and to ensure stability of recording by monitoring a reversal potential and inward rectification. Current density was measured by dividing inward current at −100 mV by membrane capacitance that was compensated during the recording. Basal currents were measured as the Ba^++ blocked inward currents at −100 mV. Alcohol and Carbachol modulated currents were measured by averaging two consecutive current readings upon reaching steady state, and subtracting the averaged basal current before and after the application of modulator. Pooled data are presented as Mean±SEM and evaluated for statistical significance by a 1-way ANOVA, followed by Bonferroni's multiple comparison post-hoc test.

[3] = target: T3, GIRK2 channel (wild type) (Mus musculus, UniProt P48542); assay: whole-cell patch clamp, HEK293T cells transfected with GIRK2; type: cell-based; conditions: 1 mM Ba++, MPD doses up to 300 mM
T3 construct: expressed in transfected cells; host or cells: HEK293T
T3 sequence (P48542 1-425): T1 sequence (P48542 1-425)
From the text: as §1, §2, §3, §4

[4] = tested on: Kir3.1/3.4 and Kir3.1/3.2 channels; conditions: cited from earlier work
[5] = tested on: Kir1 and Kir2 channels; conditions: cited from earlier work

SMILES: [Ba+2].[Cl-].[Cl-] [Ba^++, BaCl2]
- block of IRK1 inwardly rectifying current [2]: blocked completely
- block of MPD-induced GIRK2 currents [3]: completely blocked

SMILES: CCCCN1CCCCC1C(=O)Nc1c(C)cccc1C (stereo not drawn) [Bupivacaine]
- IC50 ([4]; certain Kir3 channels, read-out: IC50 for inhibition of certain Kir3 channels): ~20 µM
- IC50 ([4]; reference [31], read-out: IC50 for inhibition of Kir3.1/3.4 and Kir3.1/3.2 channels): 20 to 40 µM
- sensitivity of Kir1 and Kir2 channels to bupivacaine [5]: insensitive

More lines, now with the values ahead:

- Emax at 100000 µM [1]: 50%
SMILES: CC(O)CC(C)O (racemic) [(±) 2,4-pentanediol, 2,4-pentanediol]

- Emax at 100000 µM [1]: 70%
SMILES: CC(CO)CCC(C)(O)CO (stereo not drawn) [2,5-dimethyl-1,2,6-hexanetriol]

- Emax at 100000 µM [1]: 70%
SMILES: CC(O)(CCO)CCO [3-methyl-1,3,5-pentanetriol]

- Maximal activation of Kir3 channels relative to that of 100 mM (±)MPD ([1]; 100 mM): 60%
SMILES: C[C@@H](O)CC(C)(C)O [R(−)2 methyl-2,4-pentanediol]
